Measured values: patent US11958834B2, “Inhibitors of human immunodeficiency virus replication” (VIIV HEALTHCARE UK (No. 5) LIMITED, priority 2018, dated 2024)

Columns and labels:
Type in all cases: cell-based
[1] = system: recombinant NL4-3 virus (Renilla luciferase) in MT-2 cells; assay: HIV cell culture assay (antiviral activity, luciferase readout)
Experimental: HIV cell culture assay—MT-2 cells, 293T cells and the proviral DNA clone of NL4-3 virus were obtained from the NIH AIDS Research and Reference Reagent Program. MT-2 cells were propagated in RPMI 1640 media supplemented with 10% heat inactivated fetal bovine serum (FBS), 100 μg/ml penicillin G and up to 100 units/mL streptomycin. The 293T cells were propagated in DMEM media supplemented with 10% heat inactivated FBS, 100 μg/mL penicillin G and 100 μg/mL streptomycin. A recombinant NL4-3 proviral clone, in which a section of the nef gene was replaced with the Renilla luciferase gene, was used to make the reference virus used in these studies. The recombinant virus was prepared through transfection of the recombinant NL4-3 proviral clone into 293T cells using Transit-293 Transfection Reagent from Mirus Bio LLC (Madison, Wis.). Supernatant was harvested after 2-3 days and the amount of virus present was titered in MT-2 cells using luciferase enzyme activity as a marker by measuring luciferase enzyme activity. Luciferase was quantitated using the EnduRen Live Cell Substrate from Promega (Madison, Wis.). Antiviral activities of compounds toward the recombinant virus were quantified by measuring luciferase activity in MT-2 cells infected for 4-5 days with the recombinant virus in the presence of serial dilutions of the compound.
The 50% effective concentration (EC50) was calculated by using the exponential form of the median effect equation where (Fa)=1/[1+(ED50/drug conc.)^m] (Johnson V A, Byington R T. Infectivity Assay. In Techniques in HIV Research. ed. Aldovini A, Walker B D. 71-76. New York: Stockton Press. 1990).

[2] = Compound cytotoxicity, XTT-based colorimetric assay; conditions: human; uninfected MT2 cells, day 4, XTT
Experimental: (§1) Compound cytotoxicity and the corresponding CC50 values were determined using the same protocol as described in the antiviral assay except that uninfected cells were used. Cytotoxicity was assessed on day 4 in uninfected MT2 cells by using a XTT (2,3-bis[2-Methoxy-4-nitro-5-sulfophenyl]-2H-tetrazolium-5-carboxyanilide inner salt)-based colorimetric assay (Sigma-Aldrich, St Louis, Mo.).

uninfected MT2 cells = assay: as above; conditions: day 4, XTT
Experimental: as §1

[3] = MT-2 cells infected for 4-5 days with recombinant NL4-3 Renilla luciferase virus
[4] = Renilla, NL43, MT-2 cells infected for 4-5 days with recombinant NL4-3 Renilla luciferase virus

SMILES | EC50 [1, 3] [µM] | CC50 at 4 days [2] [µM] | CC50 (uninfected MT2 cells) [µM] | EC50 [1, 4] [µM]
Cn1nc(NS(C)(=O)=O)c2c(Cl)ccc(-n3c([C@H](Cc4cc(F)cc(F)c4)NC(=O)Cn4nc(C(F)F)c5c4C(F)(F)[C@@H]4C[C@H]54)nccc3=O)c21 (mixture of isomers) [Example 1, N—((S)-1-(1-(4-chloro-1-methyl-3-(methylsulfonamido)-1H-indazol-7-yl)-6-oxo-1,6-dihydropyrimidin-2-yl)-2-(3,5-difluorophenyl)ethyl)-2-((3bS,4aR)-3-(difluoromethyl)-5,5-difluoro-3b,4,4a,5-tetrahydro-1H-cyclopropa[3,4]cyclopenta[1,2-c]pyrazol-1-yl)acetamide] | 0.0327 | > 1 |  | 
Cn1nc(NS(C)(=O)=O)c2c(Cl)ccc(-n3c([C@H](Cc4cc(F)cc(F)c4)NC(=O)Cn4nc(C(F)F)c5c4C(F)(F)[C@@H]4C[C@H]54)nccc3=O)c21 (mixture of isomers) [Example 2, N—((S)-1-(1-(4-chloro-1-methyl-3-(methylsulfonamido)-1H-indazol-7-yl)-6-oxo-1,6-dihydropyrimidin-2-yl)-2-(3,5-difluorophenyl)ethyl)-2-((3bS,4aR)-3-(difluoromethyl)-5,5-difluoro-3b,4,4a,5-tetrahydro-1H-cyclopropa[3,4]cyclopenta[1,2-c]pyrazol-1-yl)acetamide] | 0.000118 |  | > 1 | 
Cn1nc(NS(C)(=O)=O)c2c(Cl)ccc(-n3c([C@@H](Cc4cc(F)cc(F)c4)NC(=O)Cn4nc(C(F)F)c5c4C(F)(F)[C@@H]4C[C@H]54)nccc3=O)c21 [Example 3, N—((R)-1-((1M)-1-(4-chloro-1-methyl-3-(methylsulfonamido)-1H-indazol-7-yl)-6-oxo-1,6-dihydropyrimidin-2-yl)-2-(3,5-difluorophenyl)ethyl)-2-((3bS,4aR)-3-(difluoromethyl)-5,5-difluoro-3b,4,4a,5-tetrahydro-1H-cyclopropa[3,4]cyclopenta[1,2-c]pyrazol-1-yl)acetamide] |  | > 1 |  | 0.0127
Cn1nc(NS(C)(=O)=O)c2c(Cl)ccc(-n3c([C@H](Cc4cc(F)cc(F)c4)NC(=O)Cn4nc(C(F)F)c5c4C(F)(F)[C@@H]4C[C@H]54)nccc3=O)c21 [Example 4] |  |  | > 1 | 0.000554
Cn1nc(NS(C)(=O)=O)c2c(Cl)ccc(-n3c([C@@H](Cc4cc(F)cc(F)c4)NC(=O)Cn4nc(C(F)(F)F)c5c4C(F)(F)[C@@H]4C[C@H]54)nccc3=O)c21 [Example 5, N—((R)-1-((1M)-1-(4-chloro-1-methyl-3-(methylsulfonamido)-1H-indazol-7-yl)-6-oxo-1,6-dihydropyrimidin-2-yl)-2-(3,5-difluorophenyl)ethyl)-2-((3bS,4aR)-5,5-difluoro-3-(trifluoromethyl)-3b,4,4a,5-tetrahydro-1H-cyclopropa[3,4]cyclopenta[1,2-c]pyrazol-1-yl)acetamide] |  | > 1 |  | 0.07
Cn1nc(NS(C)(=O)=O)c2c(Cl)ccc(-n3c([C@H](Cc4cc(F)cc(F)c4)NC(=O)Cn4nc(C(F)(F)F)c5c4C(F)(F)[C@@H]4C[C@H]54)nccc3=O)c21 [Example 6, N—((S)-1-((1P)-1-(4-chloro-1-methyl-3-(methylsulfonamido)-1H-indazol-7-yl)-6-oxo-1,6-dihydropyrimidin-2-yl)-2-(3,5-difluorophenyl)ethyl)-2-((3bS,4aR)-5,5-difluoro-3-(trifluoromethyl)-3b,4,4a,5-tetrahydro-1H-cyclopropa[3,4]cyclopenta[1,2-c]pyrazol-1-yl)acetamide] |  | > 1 |  | 0.000493
